Measurements reported in ChEMBL document CHEMBL4396916, “Novel potent substituted 4-amino-2-thiopyrimidines as dual VEGFR-2 and BRAF kinase inhibitors” (Eur J Med Chem, 2019).

Key:
[1] = target: Vascular endothelial growth factor receptor 2 (Homo sapiens, UniProt P35968); assay: Inhibition of human N-terminal GST tagged VEGFR-2 expressed in baculovirus infected Sf9 cells using poly (Glu,Tyr) 4:1 as substrate in presence of ATP by Kinase-Glo luminescence assay
[2] = target: Serine/threonine-protein kinase B-raf (Homo sapiens, UniProt P15056); assay: Inhibition of human wild type BRAF by Kinase-Glo luminescence assay
Serine/threonine-protein kinase B-raf, sequence (P15056 whole entry): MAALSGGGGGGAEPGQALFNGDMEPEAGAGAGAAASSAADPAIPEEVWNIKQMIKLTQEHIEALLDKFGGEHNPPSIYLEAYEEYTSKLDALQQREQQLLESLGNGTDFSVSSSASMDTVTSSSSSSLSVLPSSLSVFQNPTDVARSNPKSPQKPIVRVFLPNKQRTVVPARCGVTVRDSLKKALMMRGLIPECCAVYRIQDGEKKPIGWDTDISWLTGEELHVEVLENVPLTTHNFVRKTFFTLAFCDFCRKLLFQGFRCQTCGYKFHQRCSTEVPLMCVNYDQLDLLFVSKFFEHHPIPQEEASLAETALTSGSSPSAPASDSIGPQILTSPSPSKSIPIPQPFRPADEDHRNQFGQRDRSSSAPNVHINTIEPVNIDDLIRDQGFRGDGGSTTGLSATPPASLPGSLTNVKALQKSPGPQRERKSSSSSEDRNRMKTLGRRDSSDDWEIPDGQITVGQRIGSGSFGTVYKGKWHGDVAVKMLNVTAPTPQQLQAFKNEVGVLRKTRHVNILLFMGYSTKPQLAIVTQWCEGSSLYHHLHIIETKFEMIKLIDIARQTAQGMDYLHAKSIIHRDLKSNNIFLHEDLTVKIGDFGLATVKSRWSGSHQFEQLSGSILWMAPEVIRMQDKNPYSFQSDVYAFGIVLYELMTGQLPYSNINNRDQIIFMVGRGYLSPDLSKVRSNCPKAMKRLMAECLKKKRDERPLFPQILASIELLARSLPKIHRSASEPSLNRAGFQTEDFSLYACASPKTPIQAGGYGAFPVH

[3] = target: Platelet-derived growth factor receptor beta (Homo sapiens, UniProt P09619); assay: Inhibition of PDGFR beta (unknown origin)
Platelet-derived growth factor receptor beta, sequence (P09619 whole entry): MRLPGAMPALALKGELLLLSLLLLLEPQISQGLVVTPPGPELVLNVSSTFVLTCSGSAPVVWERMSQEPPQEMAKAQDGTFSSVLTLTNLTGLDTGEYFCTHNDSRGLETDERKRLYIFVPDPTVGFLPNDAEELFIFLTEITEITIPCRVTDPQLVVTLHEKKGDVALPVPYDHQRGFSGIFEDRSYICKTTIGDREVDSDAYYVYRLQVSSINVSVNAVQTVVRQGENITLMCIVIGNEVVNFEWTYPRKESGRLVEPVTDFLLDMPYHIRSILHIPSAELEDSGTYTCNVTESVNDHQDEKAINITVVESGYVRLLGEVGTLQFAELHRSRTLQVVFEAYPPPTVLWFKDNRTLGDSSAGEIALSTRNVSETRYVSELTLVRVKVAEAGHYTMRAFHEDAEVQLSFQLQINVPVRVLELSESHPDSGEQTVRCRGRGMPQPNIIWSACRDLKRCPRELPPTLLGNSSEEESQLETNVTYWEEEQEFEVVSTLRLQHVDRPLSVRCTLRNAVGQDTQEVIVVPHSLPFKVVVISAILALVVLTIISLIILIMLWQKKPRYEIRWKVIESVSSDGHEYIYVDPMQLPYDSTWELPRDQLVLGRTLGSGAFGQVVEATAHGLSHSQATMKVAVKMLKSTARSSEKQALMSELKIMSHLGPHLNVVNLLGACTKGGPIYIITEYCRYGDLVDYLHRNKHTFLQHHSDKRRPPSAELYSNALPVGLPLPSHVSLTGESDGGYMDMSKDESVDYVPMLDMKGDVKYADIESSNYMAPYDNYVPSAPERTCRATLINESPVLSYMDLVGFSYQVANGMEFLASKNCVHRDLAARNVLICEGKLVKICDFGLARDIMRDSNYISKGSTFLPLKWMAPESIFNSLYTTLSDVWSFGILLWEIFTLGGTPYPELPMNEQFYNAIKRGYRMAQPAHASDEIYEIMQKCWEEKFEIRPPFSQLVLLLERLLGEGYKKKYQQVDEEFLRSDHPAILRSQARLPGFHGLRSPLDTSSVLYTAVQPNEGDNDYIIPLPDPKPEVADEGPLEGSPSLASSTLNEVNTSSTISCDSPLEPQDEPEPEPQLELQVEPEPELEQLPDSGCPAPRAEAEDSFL

[4] = target: Fibroblast growth factor receptor 1 (Homo sapiens, UniProt P11362); assay: Inhibition of FGFR1 (unknown origin)
Angiopoietin-1 receptor = Angiopoietin-1 receptor (Homo sapiens, UniProt Q02763); assay: Inhibition of TIE2 (unknown origin)
Angiopoietin-1 receptor, sequence (Q02763 whole entry): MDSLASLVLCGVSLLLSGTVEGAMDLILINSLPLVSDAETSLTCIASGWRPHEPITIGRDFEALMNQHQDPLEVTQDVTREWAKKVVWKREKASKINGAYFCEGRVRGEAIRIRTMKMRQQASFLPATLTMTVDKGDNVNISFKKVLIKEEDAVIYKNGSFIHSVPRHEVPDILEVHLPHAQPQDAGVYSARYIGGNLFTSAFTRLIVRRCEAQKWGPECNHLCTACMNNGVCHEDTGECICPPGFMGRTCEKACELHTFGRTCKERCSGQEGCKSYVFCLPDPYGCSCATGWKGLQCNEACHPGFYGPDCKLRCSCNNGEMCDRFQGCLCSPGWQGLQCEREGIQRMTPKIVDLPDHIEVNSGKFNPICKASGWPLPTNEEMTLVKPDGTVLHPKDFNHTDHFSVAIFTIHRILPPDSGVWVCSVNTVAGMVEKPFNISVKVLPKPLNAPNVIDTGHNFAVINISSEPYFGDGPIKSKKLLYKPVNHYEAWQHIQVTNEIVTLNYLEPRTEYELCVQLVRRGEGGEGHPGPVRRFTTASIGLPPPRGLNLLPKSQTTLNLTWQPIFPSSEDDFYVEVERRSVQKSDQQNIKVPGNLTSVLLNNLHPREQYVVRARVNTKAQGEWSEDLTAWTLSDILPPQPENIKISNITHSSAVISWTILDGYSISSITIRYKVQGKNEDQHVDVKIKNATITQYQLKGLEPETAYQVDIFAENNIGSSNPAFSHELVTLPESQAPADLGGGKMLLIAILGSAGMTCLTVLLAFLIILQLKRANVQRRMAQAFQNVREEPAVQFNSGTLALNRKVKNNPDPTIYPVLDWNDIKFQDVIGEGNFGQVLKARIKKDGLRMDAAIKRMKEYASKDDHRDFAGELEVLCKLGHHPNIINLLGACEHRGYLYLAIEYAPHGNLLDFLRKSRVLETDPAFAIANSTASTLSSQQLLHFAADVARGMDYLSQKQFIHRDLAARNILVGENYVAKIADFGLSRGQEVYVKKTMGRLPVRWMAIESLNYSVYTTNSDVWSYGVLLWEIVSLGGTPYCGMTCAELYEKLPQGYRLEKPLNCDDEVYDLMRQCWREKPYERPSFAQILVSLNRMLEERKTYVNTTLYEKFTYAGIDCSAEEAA

[5] = target: Mast/stem cell growth factor receptor Kit (Homo sapiens, UniProt P10721); assay: Inhibition of c-kit (unknown origin)
K562 = assay: Growth inhibition of human K562 cells at 10 uM incubated for 48 hrs by sulforhodamine B assay relative to control; type: functional; settings: K562, 48 h, read-out: GI
MOLT-4 = assay: Growth inhibition of human MOLT4 cells at 10 uM incubated for 48 hrs by sulforhodamine B assay relative to control; type: functional; settings: MOLT-4, 48 h, read-out: GI
RPMI-8226 = assay: Growth inhibition of human RPMI8226 cells at 10 uM incubated for 48 hrs by sulforhodamine B assay relative to control; type: functional; settings: RPMI-8226, 48 h, read-out: GI
SR = assay: Growth inhibition of human SR cells at 10 uM incubated for 48 hrs by sulforhodamine B assay relative to control; type: functional; settings: read-out: GI
HOP-62 = assay: Growth inhibition of human HOP62 cells at 10 uM incubated for 48 hrs by sulforhodamine B assay relative to control; type: functional; settings: HOP-62, 48 h, read-out: GI
NCI-H23 = assay: Growth inhibition of human NCI-H23 cells at 10 uM incubated for 48 hrs by sulforhodamine B assay relative to control; type: functional; settings: NCI-H23, 48 h, read-out: GI
NCI-H522 = assay: Growth inhibition of human NCI-H522 cells at 10 uM incubated for 48 hrs by sulforhodamine B assay relative to control; type: functional; settings: NCI-H522, 48 h, read-out: GI
SNB-19 = assay: Growth inhibition of human SNB19 cells at 10 uM incubated for 48 hrs by sulforhodamine B assay relative to control; type: functional; settings: SNB-19, 48 h, read-out: GI
U-251 = assay: Growth inhibition of human U251 cells at 10 uM incubated for 48 hrs by sulforhodamine B assay relative to control; type: functional; settings: U-251, 48 h, read-out: GI
Malme-3M = assay: Growth inhibition of human MALME-3M cells at 10 uM incubated for 48 hrs by sulforhodamine B assay relative to control; type: functional; settings: read-out: GI
MDA-MB-435 = assay: Growth inhibition of human MDA-MB-435 cells at 10 uM incubated for 48 hrs by sulforhodamine B assay relative to control; type: functional; settings: MDA-MB-435, 48 h, read-out: GI
SK-MEL-2 = assay: Growth inhibition of human SK-MEL-2 cells at 10 uM incubated for 48 hrs by sulforhodamine B assay relative to control; type: functional; settings: SK-MEL-2, 48 h, read-out: GI
SK-MEL-28 = assay: Growth inhibition of human SK-MEL-28 cells at 10 uM incubated for 48 hrs by sulforhodamine B assay relative to control; type: functional; settings: SK-MEL-28, 48 h, read-out: GI
SK-MEL-5 = assay: Growth inhibition of human SK-MEL-5 cells at 10 uM incubated for 48 hrs by sulforhodamine B assay relative to control; type: functional; settings: SK-MEL-5, 48 h, read-out: GI
UACC-257 = assay: Growth inhibition of human UACC257 cells at 10 uM incubated for 48 hrs by sulforhodamine B assay relative to control; type: functional; settings: UACC-257, 48 h, read-out: GI
OVCAR-3 = assay: Growth inhibition of human OVCAR3 cells at 10 uM incubated for 48 hrs by sulforhodamine B assay relative to control; type: functional; settings: OVCAR-3, 48 h, read-out: GI
OVCAR-4 = assay: Growth inhibition of human OVCAR4 cells at 10 uM incubated for 48 hrs by sulforhodamine B assay relative to control; type: functional; settings: OVCAR-4, 48 h, read-out: GI
OVCAR-8 = assay: Growth inhibition of human OVCAR8 cells at 10 uM incubated for 48 hrs by sulforhodamine B assay relative to control; type: functional; settings: OVCAR-8, 48 h, read-out: GI
NCI/ADR-RES = assay: Growth inhibition of human NCI/ADR-RES cells at 10 uM incubated for 48 hrs by sulforhodamine B assay relative to control; type: functional; settings: read-out: GI
786-0 = assay: Growth inhibition of human 786-0 cells at 10 uM incubated for 48 hrs by sulforhodamine B assay relative to control; type: functional; settings: 786-0, 48 h, read-out: GI
A498 = assay: Growth inhibition of human A498 cells at 10 uM incubated for 48 hrs by sulforhodamine B assay relative to control; type: functional; settings: A498, 48 h, read-out: GI
ACHN = assay: Growth inhibition of human ACHN cells at 10 uM incubated for 48 hrs by sulforhodamine B assay relative to control; type: functional; settings: read-out: GI
CAKI-1 = assay: Growth inhibition of human Caki1 cells at 10 uM incubated for 48 hrs by sulforhodamine B assay relative to control; type: functional; settings: CAKI-1, 48 h, read-out: GI
SN12C = assay: Growth inhibition of human SN12C cells at 10 uM incubated for 48 hrs by sulforhodamine B assay relative to control; type: functional; settings: read-out: GI
PC-3 = assay: Growth inhibition of human PC3 cells at 10 uM incubated for 48 hrs by sulforhodamine B assay relative to control; type: functional; settings: PC-3, 48 h, read-out: GI
DU-145 = assay: Growth inhibition of human DU145 cells at 10 uM incubated for 48 hrs by sulforhodamine B assay relative to control; type: functional; settings: DU-145, 48 h, read-out: GI
MCF7 [6] = assay: Growth inhibition of human MCF7 cells at 10 uM incubated for 48 hrs by sulforhodamine B assay relative to control; type: functional; settings: MCF7, 48 h, read-out: GI
MDA-MB-231 = assay: Growth inhibition of human MDA-MB-231 cells at 10 uM incubated for 48 hrs by sulforhodamine B assay relative to control; type: functional; settings: MDA-MB-231, 48 h, read-out: GI
BT-549 = assay: Growth inhibition of human BT549 cells at 10 uM incubated for 48 hrs by sulforhodamine B assay relative to control; type: functional; settings: BT-549, 48 h, read-out: GI
MDA-MB-468 = assay: Growth inhibition of human MDA-MB-468 cells at 10 uM incubated for 48 hrs by sulforhodamine B assay relative to control; type: functional; settings: MDA-MB-468, 48 h, read-out: GI
MCF7 [7] = assay: Inhibition of VEGFR2 level in human MCF7 cells at 10 uM measured after 48 hrs by ELISA relative to control; type: functional; settings: MCF7, 48 h

Vascular endothelial growth factor receptor 2, sequence (P35968 whole entry): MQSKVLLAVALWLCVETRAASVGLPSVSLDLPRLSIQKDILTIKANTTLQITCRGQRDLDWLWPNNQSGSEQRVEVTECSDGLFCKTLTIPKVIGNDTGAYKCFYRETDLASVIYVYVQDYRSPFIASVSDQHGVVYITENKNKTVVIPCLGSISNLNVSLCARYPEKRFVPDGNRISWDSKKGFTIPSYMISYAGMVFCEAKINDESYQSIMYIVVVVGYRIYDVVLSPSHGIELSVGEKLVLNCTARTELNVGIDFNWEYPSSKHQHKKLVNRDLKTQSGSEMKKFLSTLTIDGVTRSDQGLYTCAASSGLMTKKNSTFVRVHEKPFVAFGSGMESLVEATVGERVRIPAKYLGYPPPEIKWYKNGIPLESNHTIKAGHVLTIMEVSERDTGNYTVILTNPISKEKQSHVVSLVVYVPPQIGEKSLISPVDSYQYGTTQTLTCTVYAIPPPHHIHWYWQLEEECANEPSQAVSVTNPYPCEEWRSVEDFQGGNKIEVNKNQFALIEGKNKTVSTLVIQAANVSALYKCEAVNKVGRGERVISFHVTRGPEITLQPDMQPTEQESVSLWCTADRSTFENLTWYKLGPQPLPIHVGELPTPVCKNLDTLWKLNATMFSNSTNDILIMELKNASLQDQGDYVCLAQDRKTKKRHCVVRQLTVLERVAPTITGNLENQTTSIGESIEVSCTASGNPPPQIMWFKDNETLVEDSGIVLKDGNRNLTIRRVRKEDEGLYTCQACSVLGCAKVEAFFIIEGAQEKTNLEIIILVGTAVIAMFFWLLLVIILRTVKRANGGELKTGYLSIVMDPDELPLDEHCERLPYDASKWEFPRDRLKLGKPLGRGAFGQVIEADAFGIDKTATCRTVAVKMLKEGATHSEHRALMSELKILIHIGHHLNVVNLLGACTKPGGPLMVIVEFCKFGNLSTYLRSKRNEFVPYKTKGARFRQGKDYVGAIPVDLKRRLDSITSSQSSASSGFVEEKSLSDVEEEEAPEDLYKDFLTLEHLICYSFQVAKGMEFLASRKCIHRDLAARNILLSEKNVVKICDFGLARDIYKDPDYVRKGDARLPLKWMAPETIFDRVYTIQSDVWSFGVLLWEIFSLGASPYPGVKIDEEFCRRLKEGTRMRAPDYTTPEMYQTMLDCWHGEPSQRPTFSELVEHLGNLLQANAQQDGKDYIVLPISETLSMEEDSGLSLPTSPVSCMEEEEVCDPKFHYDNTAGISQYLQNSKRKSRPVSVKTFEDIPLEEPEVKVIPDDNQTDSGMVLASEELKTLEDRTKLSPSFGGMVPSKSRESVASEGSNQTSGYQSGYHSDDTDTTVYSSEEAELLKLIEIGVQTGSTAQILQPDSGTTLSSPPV

Row | SMILES | IC50 [1] [nM] | IC50 [2] [nM] | IC50 [3] [nM] | IC50 [4] [nM] | IC50 (Angiopoietin-1 receptor) [nM] | IC50 [5] [nM] | inhibition of growth at 10 µM (K562) [%] | inhibition of growth at 10 µM (MOLT-4) [%] | inhibition of growth at 10 µM (RPMI-8226) [%] | inhibition of growth at 10 µM (SR) [%] | inhibition of growth at 10 µM (HOP-62) [%] | inhibition of growth at 10 µM (NCI-H23) [%] | inhibition of growth at 10 µM (NCI-H522) [%] | inhibition of growth at 10 µM (SNB-19) [%] | inhibition of growth at 10 µM (U-251) [%] | inhibition of growth at 10 µM (Malme-3M) [%] | inhibition of growth at 10 µM (MDA-MB-435) [%] | inhibition of growth at 10 µM (SK-MEL-2) [%] | inhibition of growth at 10 µM (SK-MEL-28) [%] | inhibition of growth at 10 µM (SK-MEL-5) [%] | further results
1 | CCOC(=O)c1ccc(Nc2ccnc(SCC(=O)c3ccc(C#N)cc3)n2)cc1 | 170 | 150 | 390 | 280 | 1390 | 5160 | 49 | 84 | 80 | 46 | 37 | 20 | 73 | 10 | 15 | 19 | 32 | 29 | 19 | 62 | inhibition of growth at 10 µM (UACC-257): 22%; inhibition of growth at 10 µM (OVCAR-3): 21%; inhibition of growth at 10 µM (OVCAR-4): 35%; inhibition of growth at 10 µM (OVCAR-8): 77%; inhibition of growth at 10 µM (NCI/ADR-RES): 58%; inhibition of growth at 10 µM (786-0): 22%; inhibition of growth at 10 µM (A498): 50%; inhibition of growth at 10 µM (ACHN): 20%; inhibition of growth at 10 µM (CAKI-1): 43%; inhibition of growth at 10 µM (SN12C): 26%; inhibition of growth at 10 µM (PC-3): 60%; inhibition of growth at 10 µM (DU-145): 21%; inhibition of growth at 10 µM (MCF7 [6]): 33%; inhibition of growth at 10 µM (MDA-MB-231): 19%; inhibition of growth at 10 µM (BT-549): 50%; inhibition of growth at 10 µM (MDA-MB-468): 52%; inhibition at 10 µM (MCF7 [7]): 84%
2 | O=C(CSc1nccc(Nc2ccc(N3CCOCC3)cc2)n1)c1ccc(F)cc1 | 260 | 110 | 150 | 130 | 480 | 250 | 28 | 25 | 21 | 18 | 69 | 21 | 49 | 37 | 16 | 29 | 16 | 10 | 19 | 37 | inhibition of growth at 10 µM (UACC-257): 19%; inhibition of growth at 10 µM (OVCAR-3): 18%; inhibition of growth at 10 µM (OVCAR-4): 57%; inhibition of growth at 10 µM (OVCAR-8): 62%; inhibition of growth at 10 µM (NCI/ADR-RES): 26%; inhibition of growth at 10 µM (786-0): 13%; inhibition of growth at 10 µM (A498): 36%; inhibition of growth at 10 µM (ACHN): 24%; inhibition of growth at 10 µM (CAKI-1): 41%; inhibition of growth at 10 µM (SN12C): 20%; inhibition of growth at 10 µM (PC-3): 27%; inhibition of growth at 10 µM (DU-145): 16%; inhibition of growth at 10 µM (MCF7 [6]): 31%; inhibition of growth at 10 µM (MDA-MB-231): 22%; inhibition of growth at 10 µM (BT-549): 31%; inhibition of growth at 10 µM (MDA-MB-468): 38%; inhibition at 10 µM (MCF7 [7]): 33%
